# From patent US20250186410A1, “DUAL INHIBITORS OF TRYPTOPHAN DIOXYGENASES (IDO1 AND TDO) AND THEIR USE IN THERAPY” (ANTIDO THERAPEUTICS INTERNATIONAL SÀRL, priority 2022, published 2025)
# Assays:
# [1] = test system: LLC (mouse Lewis lung cancer cells); experiment: Growth inhibition of parental LLC cells; format: cell-based; details: 24 h
# Experimental: Cisplatin resistant mouse cell lines (LLC-CR) were derived from LLC (mouse Lewis lung cancer cells (epidermoid carcinoma), ATCC) through treatment with increasing doses of cisplatin intermittently. LLC-CR clones were maintained in half GI50 dosage concentration. […] The cultures were observed daily and allowed to grow until they reached an initial cell density. […] After the cells recovered from cisplatin toxicity, they were treated again with increasing dosage of cisplatin for 24 h. These cells are seeded at 500-1000 cells per dish and cultured for 5-7 days. Clones are selected and expanded as well as tested for cisplatin sensitivity. Similar processes of exposure are carried out for a third and fourth time to generate higher resistant clones. At the end, the resistance clones (LLC-CR) were maintained in media completed with 1 μg/ml (half GI50 dosage) of cisplatin.
# LLC-CR cells = details: cited from earlier work
# [2] = Body weight and clinical observations, Pan02 syngeneic model; format: in vivo, mouse; details: for Body weight, Mean: oxaliplatin 6 mg/kg i.p. BIW, AT-0174 120 mg/kg p.o. QD Day 7-32
# Experimental: (§1) Female C57BL/6 mice were used in the study, with ad libitum access to rodent food and water throughout the study period.
# (§2) Murine pancreatic Pan02 cancer cells were cultured in a 37° C. incubator containing 5% CO2 with 10% FBS in DMEM medium. The cells were sub-cultured within 10 passages before inoculated into the mice. 1*10^6 PANC02 cells in 100 μL serum-free medium mixed with Matrigel (v/v 1:1) were subcutaneously inoculated at the right flank of each mouse under anesthetized with 2-5% isoflurane before inoculation.
# Body weight: Mice body weights were measured and recorded three times per week after grouping. Animals were also weighed in the event of accidental death or near-death euthanasia.
# Pan02 tumors = experiment: Tumor volume, mouse subcutaneous Pan02 syngeneic model of pancreatic cancer; format: in vivo; details: for tumor volume, Mean: oxaliplatin 6 mg/kg i.p. BIW, AT-0174 120 mg/kg p.o. QD Day 7-32
# Experimental: as §1, §2
# Tumor volume: The tumor volume (V) was calculated as follows: V=(length×width^2)/2. Tumor volume was measured and recorded three times per week after grouping.
# The individual relative tumor volume (RTV) was calculated as follows: RTV=Vt/V0, where Vt is the volume on each day, and V0 is the volume at the beginning of the treatment.
# [3] = test system: immune cells in Pan02 tumors; experiment: FACS analysis of Pan02 tumors; format: in vivo, mouse; details: Day 34, oxaliplatin 6 mg/kg i.p. BIW, AT-0174 120 mg/kg p.o. QD
# Experimental: On Day 34, all tumor-bearing mice were sacrificed, and tumors were collected for FACS analysis. FACS panels were:
# Panel A: L/D, CD45, CD3, CD4, CD8, CD11b, CD25, IFN-γ, Foxp3.
# Panel B: L/D, CD45, CD3, CD11b, NKG2D, F4/80.
# Flow cytometry was conducted using a Beckman Cytoflex LX and antibodies from Thermofisher and Biolegend, using standard methods.
smiles,measurement,setting,value
N.N.[Cl][Pt][Cl] [cisplatin],50% growth inhibition (GI50) concentration,[1],0.4 µg/mL
same,GI50 concentration in resistant clones,LLC-CR cells; LLC-CR cells,~2 µg/mL
same,fold resistance of LLC-CR,LLC-CR cells; LLC-CR versus parental LLC,3-5 fold
O=C1[O][Pt]2([NH][C@@H]3CCCC[C@H]3[NH]2)[O]C1=O [Oxaliplatin],"Body weight, Mean","[2]; Pan02, day 4",21.21 g
same,"Body weight, Mean","[2]; Pan02, day 11",21.10 g
same,"Body weight, Mean","[2]; Pan02, day 25",23.00 g
same,"Body weight, Mean","[2]; Pan02, day 28",22.00 g
same,"Body weight, Mean","[2]; Pan02, day 32",22.65 g
same,"Body weight, Mean","[2]; Pan02, day 34",23.31 g
same,body weight loss / tolerability,[2]; Pan02 model,Slight body weight loss
same,"tumor volume, Mean","Pan02 tumors; Pan02, day 0",63.84 mm^3
same,"tumor volume, Mean","Pan02 tumors; Pan02, day 4",80.36 mm^3
same,"tumor volume, Mean","Pan02 tumors; Pan02, day 7",108.77 mm^3
same,"tumor volume, Mean","Pan02 tumors; Pan02, day 11",152.24 mm^3
same,"tumor volume, Mean","Pan02 tumors; Pan02, day 14",250.08 mm^3
same,"tumor volume, Mean","Pan02 tumors; Pan02, day 18",410.18 mm^3
same,"tumor volume, Mean","Pan02 tumors; Pan02, day 21",601.42 mm^3
same,"tumor volume, Mean","Pan02 tumors; Pan02, day 25",735.54 mm^3
same,"tumor volume, Mean","Pan02 tumors; Pan02, day 28",912.95 mm^3
same,"tumor volume, Mean","Pan02 tumors; Pan02, day 32",1316.29 mm^3
same,"tumor volume, Mean","Pan02 tumors; Pan02, day 34",1507.92 mm^3
same,anti-tumor response,"Pan02 tumors; Pan02 model, compared with the vehicle group",little anti-tumor response
same,CD4+ Tregs,[3],25.40%
same,CD8+ CD3+ Tcells,[3],31.62%
